“And” between values parts separate entries of the source, which are not always exact repeats. Identical values can stand only once.
Target: T1, hP2X7R (Homo sapiens, UniProt Q99572)
T1 sequence (Q99572 1-595): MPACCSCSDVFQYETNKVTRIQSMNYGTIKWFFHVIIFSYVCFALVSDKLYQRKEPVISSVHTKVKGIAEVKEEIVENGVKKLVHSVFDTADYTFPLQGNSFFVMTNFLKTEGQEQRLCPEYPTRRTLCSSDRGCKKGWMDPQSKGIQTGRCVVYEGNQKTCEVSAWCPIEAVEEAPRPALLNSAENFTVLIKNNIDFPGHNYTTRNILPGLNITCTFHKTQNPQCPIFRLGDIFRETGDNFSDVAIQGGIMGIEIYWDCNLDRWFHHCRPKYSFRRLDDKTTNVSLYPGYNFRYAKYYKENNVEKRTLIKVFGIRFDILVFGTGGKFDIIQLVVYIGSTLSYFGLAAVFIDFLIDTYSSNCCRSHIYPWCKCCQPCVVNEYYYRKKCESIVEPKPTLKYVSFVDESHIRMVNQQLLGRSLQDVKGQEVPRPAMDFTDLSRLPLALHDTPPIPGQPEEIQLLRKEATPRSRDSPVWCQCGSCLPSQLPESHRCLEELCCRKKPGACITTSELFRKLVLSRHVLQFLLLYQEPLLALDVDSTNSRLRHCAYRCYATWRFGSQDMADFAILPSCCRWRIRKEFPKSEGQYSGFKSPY
Test: Ethidium bromide accumulation in hP2X7R-expressing HEK293 cells
Assay type: cell-based
Parameters: expressed in transfected cells
Settings: for ΔΔGexp: relative to UB-ALT-P30, from experimental pIC50 values, T = 298 K; for MAX100 (% of maximum accumulation, replicates 1-3): single replicates
Experimental: Human P2X7R-expressing HEK293 cells were cultured in a humidified atmosphere of 5% CO2 at 37 °C in Dulbecco’s Modification of Eagle’s Medium (DMEM; Corning) supplemented with 10% (v/v) fetal bovine serum (Corning) and 1% (v/v) antibiotic–antimycotic (Gibco)[75]. To perform the assay, the DMEM was removed, and the HEK293 cells were washed with 3 mL of 1X DPBS (Dulbecco’s Phosphate-Buffered Saline; Corning). After the removal of DPBS solution, the cells were detached from the dish with 1 mL of trypsin/EDTA (Gibco), and the cells were collected by centrifugation. The cells (density of 2.25 × 10^7) were re-suspended in 4-(2-hydroxyethyl)-1-piperazineethanesulfonic acid (HEPES)-buffered salt solution consisting of 140 mM potassium chloride, 1 mM ethylene diamine tetraacetic acid (EDTA), 5 mM glucose, 20 mM HEPES, and 0.1 mM ethidium bromide (pH 7.4). The vehicles or appropriate range of concentrations of compounds (10 μL, pre-diluted in 10% (v/v) DMSO in DW from 10 mM stock) were added to each well of 96-well black plate (Corning), and 80 μL of the cell suspension was subsequently added to each well. BzATP (10 μL, pre-diluted in DW from 10 mM stock) was then added, and the final assay volume was maintained at 100 μL. After the incubation in 5% CO2 at 37 °C for 2 h, the ethidium dye uptake was detected by measuring the fluorescence (excitation wavelength of 530 nm and emission wavelength of 590 nm) of each well using a CHAMELEON™ Multi-Technology Plate Reader. The antagonistic activities of compounds are expressed as the percentages relative to the maximum accumulation of ethidium bromide observed in the control group with the stimulation of the hP2X7R by an agonist, BzATP. The IC50 values of compounds as antagonists were calculated using nonlinear regression analysis using OriginPro 9.1 software.

[1] = BzATP 6 μM, antagonist concentration 1 (unit not given)
[2] = BzATP 6 μM, antagonist concentration 10 (unit not given)
[3] = BzATP 6 μM, antagonist concentration 50 (unit not given)
[4] = BzATP 6 μM, antagonist concentration 100 (unit not given)
[5] = BzATP 6 μM, antagonist concentration 500 (unit not given)
[6] = BzATP 6 μM, antagonist concentration 1000 (unit not given)
[7] = BzATP 7 μM, antagonist concentration 0.1 (unit not given)
[8] = BzATP 7 μM, antagonist concentration 0.5 (unit not given)
[9] = BzATP 7 μM, antagonist concentration 1 (unit not given)
[10] = BzATP 7 μM, antagonist concentration 5 (unit not given)
[11] = BzATP 7 μM, antagonist concentration 10 (unit not given)
[12] = BzATP 7 μM, antagonist concentration 100 (unit not given)

SMILES: O=C(NNc1ccccc1Cl)C12CC3CC(CC(C3)C1)C2 [UB-ALT-P30, reference compound]
- mean % of maximum accumulation [1]: 94.223%
- mean % of maximum accumulation [2]: 86.3844%
- mean % of maximum accumulation [3]: 53.8482%
- mean % of maximum accumulation [4]: 26.7232%
- mean % of maximum accumulation [5]: 9.424%
- mean % of maximum accumulation [6]: 9.144%
- IC50 (hP2X7R, ethidium bromide accumulation, mean ± SD, triplicate): 0.047 ± 0.004 µM
- ΔΔGexp: 0 kcal/mol
- MAX100 (% of maximum accumulation, replicates 1-3) [1]: 87.3374 and 88.4652 and 106.867
- MAX100 (% of maximum accumulation, replicates 1-3) [2]: 79.5317 and 91.4204 and 88.2012
- MAX100 (% of maximum accumulation, replicates 1-3) [3]: 46.9211 and 58.6273 and 55.9961
- MAX100 (% of maximum accumulation, replicates 1-3) [4]: 22.0295 and 25.5481 and 32.5919
- MAX100 (% of maximum accumulation, replicates 1-3) [5]: 9.107 and 5.6244 and 13.5397
- MAX100 (% of maximum accumulation, replicates 1-3) [6]: 6.418 and 4.862 and 16.1509

SMILES: CC12CC3CC1(C)C1(C)CC3(C(=O)NNc3ccccc3Cl)CC21C [UB-MBX-46]
- mean % of maximum accumulation [7]: 86.0633%
- mean % of maximum accumulation [8]: 74.1428%
- mean % of maximum accumulation [9]: 59.2287%
- mean % of maximum accumulation [10]: 27.1109%
- mean % of maximum accumulation [11]: 10.5059%
- mean % of maximum accumulation [12]: 11.5505%
- ΔΔGexp: -2.37 ± 0.32 kcal/mol
- MAX100 (% of maximum accumulation, replicates 1-3) [7]: 84.5638 and 89.1729 and 84.4531
- MAX100 (% of maximum accumulation, replicates 1-3) [8]: 75.8389 and 73.3083 and 73.2812
- MAX100 (% of maximum accumulation, replicates 1-3) [9]: 53.915 and 63.4586 and 60.3125
- MAX100 (% of maximum accumulation, replicates 1-3) [10]: 28.9336 and 34.5865 and 17.8125
- MAX100 (% of maximum accumulation, replicates 1-3) [11]: 10.962 and 9.774 and 10.7812
- MAX100 (% of maximum accumulation, replicates 1-3) [12]: 12.4534 and 11.7293 and 10.4688

— PMC12436592 (Nature Communications, 2025)
